According to US9399636B2, “Substituted dipyridylamines and uses thereof” (Genentech, Inc., priority 2012, dated 2016):

Target: T1, DLK (Homo sapiens, UniProt Q12852)
T1 construct: N-terminally GST-tagged DLK (catalytic domain amino acid 1-520) (Carna Bioscience); GST (N); purchased Carna Bioscience
T1 sequence (Q12852 1-520): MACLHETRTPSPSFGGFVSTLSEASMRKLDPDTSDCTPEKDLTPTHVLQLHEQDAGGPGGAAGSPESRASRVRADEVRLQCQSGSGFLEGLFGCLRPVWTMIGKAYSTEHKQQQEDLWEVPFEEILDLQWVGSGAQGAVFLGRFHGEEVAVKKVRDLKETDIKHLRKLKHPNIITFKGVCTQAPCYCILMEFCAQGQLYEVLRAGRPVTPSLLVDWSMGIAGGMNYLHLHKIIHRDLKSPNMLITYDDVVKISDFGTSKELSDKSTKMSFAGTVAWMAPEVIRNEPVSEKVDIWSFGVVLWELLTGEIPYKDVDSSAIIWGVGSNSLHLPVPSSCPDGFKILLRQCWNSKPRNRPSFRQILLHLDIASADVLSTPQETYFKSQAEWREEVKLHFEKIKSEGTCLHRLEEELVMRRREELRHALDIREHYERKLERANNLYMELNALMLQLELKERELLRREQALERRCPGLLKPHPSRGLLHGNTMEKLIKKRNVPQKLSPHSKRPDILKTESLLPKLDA
Test: DLK TR-FRET assay
Assay type: biochemical
Settings: 5 nM GST-tagged DLK (catalytic domain amino acid 1-520), 40 nM HIS-tagged MKK4 K131M substrate, 30 μM ATP, 60 minutes
How it was run: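 Phosphorylation of HIS-tagged MKK4 K131M (40 nM) by GST-DLK aa 1-520 (5 nM) at 30 μM ATP, pH 7.5, run 60 min at ambient temperature. Compound series started at 20 uM, diluted 1:3. Phospho-MKK4 detected by TR-FRET (Eu cryptate/D2 antibodies, 3 h, EDTA-containing buffer).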

Ki [nM]	Compound
13	N#Cc1ccnc(Nc2cc(C3(C#N)CCOCC3)cc(N3CC(F)C3)n2)c1 [Example 46, 2-[4-(4-Cyano-tetrahydro-pyran-4-yl)-6-(3-fluoro-azetidin-1-yl)-pyridin-2-ylamino]-isonicotinonitrile]
0.8	N#Cc1ccnc(Nc2cc(C3(C#N)CCN(C4COC4)CC3)cc(N3CC4CC4C3)n2)c1 (stereo not shown) [Example 35, 6′-(3-Aza-bicyclo[3.1.0]hex-3-yl)-2′-(4-cyano-pyridin-2-ylamino)-1-oxetan-3-yl-2,3,5,6-tetrahydro-1H-[4,4′]bipyridinyl-4-carbonitrile]
4	N#Cc1ccnc(Nc2cc(C3(C#N)CCOCC3)cc(N3CC4CC(F)(F)C4C3)n2)c1 (stereo not shown) [Example 69, 2-[4-(4-Cyano-tetrahydro-pyran-4-yl)-6-(6,6-difluoro-3-aza-bicyclo[3.2.0]hept-3-yl)-pyridin-2-ylamino]-isonicotinonitrile]
190	N#Cc1ccnc(Nc2cc(C3(C#N)CCOCC3)cc(Cl)n2)c1 [Example 77, 2-[6-Chloro-4-(4-cyano-tetrahydro-pyran-4-yl)-pyridin-2-ylamino]-isonicotinonitrile]

More lines, now with the values behind:

Compound	Ki [nM]
N#Cc1ccnc(Nc2cc(C3CCOCC3)cc(N3CC4(CCOC4)C3)n2)c1 [Example 102, 2-[6-(6-Oxa-2-aza-spiro[3.4]oct-2-yl)-4-(tetrahydro-pyran-4-yl)-pyridin-2-ylamino]-isonicotinonitrile]	88
CC1CCCN1c1cc(C2CCN(S(C)(=O)=O)C2)cc(Nc2cc(C(F)(F)F)ccn2)n1 (stereo not shown) [Example 132, [4-(1-Methanesulfonyl-pyrrolidin-3-yl)-6-(2-methyl-pyrrolidin-1-yl)-pyridin-2-yl]-(4-trifluoromethyl-pyridin-2-yl)-amine]	2.12
CC(=O)N1CCC(c2ccnc(Nc3cc(C#N)ccn3)c2)CC1 [Example 129, 2-(1′-Acetyl-1′,2′,3′,4′,5′,6′-hexahydro-[4,4′]bipyridinyl-2-ylamino)-isonicotinonitrile]	510
N#Cc1ccnc(Nc2cc(C3CCN(C4COC4)CC3)cc(N3CC4CC3C4)n2)c1 [Example 90, 2-[6-(2-Aza-bicyclo[2.1.1]hex-2-yl)-1′-oxetan-3-yl-1′,2′,3′,4′,5′,6′-hexahydro-[4,4′]bipyridinyl-2-ylamino]-isonicotinonitrile]	1.9
Cc1cc(C2CCOCC2)cc(Nc2cc(C#N)ccn2)n1 [Example 80, 2-[6-Methyl-4-(tetrahydro-pyran-4-yl)-pyridin-2-ylamino]-isonicotinonitrile]	58
N#Cc1ccnc(Nc2cc(C3CCN(C4COC4)CC3)cc(N3CC(F)C3)n2)c1 [Example 91, 2-[6-(3-Fluoro-azetidin-1-yl)-1′-oxetan-3-yl-1′,2′,3′,4′,5′,6′-hexahydro-[4,4′]bipyridinyl-2-ylamino]-isonicotinonitrile]	6.7
